Assay results published in paper PMC5830979, “Preclinical In Vitro and In Vivo Evaluation of [^18F]FE@SUPPY for Cancer PET Imaging: Limitations of a Xenograft Model for Colorectal Cancer” (Contrast Media & Molecular Imaging, 2018).
Read-outs that look alike come from different tables or passages of the source. Each block holds one compound with its values, some of them ahead of it.

Experiments:
hA1AR = target: T1, hA1AR (Homo sapiens, UniProt P30542); assay: Competitive binding assay, hA1AR membranes, [3H]DPCPX; conditions: for Ki: read-out: Ki hA1AR, [3H]DPCPX […], DMSO up to 10%, n = 3–5 in triplicate
T1 sequence (P30542 1-326): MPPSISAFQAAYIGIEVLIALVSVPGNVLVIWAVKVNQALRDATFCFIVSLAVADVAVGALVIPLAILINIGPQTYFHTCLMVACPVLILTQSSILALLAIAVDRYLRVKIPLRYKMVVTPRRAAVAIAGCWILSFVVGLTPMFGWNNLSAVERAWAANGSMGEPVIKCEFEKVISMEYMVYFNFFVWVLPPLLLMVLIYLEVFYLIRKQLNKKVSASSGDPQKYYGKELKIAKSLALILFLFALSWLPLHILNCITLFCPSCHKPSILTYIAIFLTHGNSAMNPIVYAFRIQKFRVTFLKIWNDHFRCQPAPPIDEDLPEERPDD
Description: (§2) The assay was performed according to the manufacturer's instructions in a final volume of 500 μL. Increasing concentrations of test compounds were added, whereby the concentration of dimethyl sulfoxide (DMSO) in final assay volume remained ≤10% (hA1AR and hA2AAR assay) and ≤1% in the hA3AR assay. Nonspecific binding was determined using 1 μM DPCPX (hA1R assay), 1 μM SCH-442,416 (hA2AR assay), or 10 μM I-AB-MECA (hA3AR assay). Filtration through GF/B filters (Whatman®, presoaked in 0.1% PEI or 0.5% BSA) was performed using a cell harvester (Brandel®), and receptor-bound radioactivity was determined via gamma counting (2480 Wizard^2, PerkinElmer) or liquid scintillation counting (Hidex 300 SL). IC50 fitted binding curves were generated using the GraphPad Software 5.0, and Ki values were calculated using the Cheng-Prusoff equation.

hA2AAR = hA2AAR (Homo sapiens, UniProt P29274); assay: Competitive binding assay, hA2AAR membranes, [3H]CGS21680; conditions: read-out: Ki hA2AAR; [3H]CGS21680 50 nM; DMSO up to 10%; n = 3–5 in triplicate
Description: as §2

hA3AR = target: T2, hA3AR (Homo sapiens, UniProt P0DMS8); assay: Competitive binding assay, hA3AR membranes, [125I]AB-MECA; conditions: read-out: Ki hA3AR, [125I]AB-MECA 0.4 nM, DMSO ≤1%
T2 sequence (P0DMS8 1-318): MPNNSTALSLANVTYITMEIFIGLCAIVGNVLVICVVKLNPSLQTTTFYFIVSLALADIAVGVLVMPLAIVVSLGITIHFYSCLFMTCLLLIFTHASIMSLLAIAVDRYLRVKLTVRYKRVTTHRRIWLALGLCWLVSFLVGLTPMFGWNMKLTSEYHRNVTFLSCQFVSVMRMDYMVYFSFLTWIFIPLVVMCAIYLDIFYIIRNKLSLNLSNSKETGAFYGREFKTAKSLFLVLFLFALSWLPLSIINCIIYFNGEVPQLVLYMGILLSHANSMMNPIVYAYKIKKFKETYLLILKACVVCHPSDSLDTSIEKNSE
Description: as §2

HT-29 cells [1] = test system: HT-29 cells; design: method as in PMID 23454010; conditions: 1 µM, A3AR-dependent; cited from earlier work
HCT-116 cells = test system: HCT-116 cells; design: method as in PMID 23454010; conditions: A3AR dependent; cited from earlier work
rat A3AR = test system: rat A3AR; design: method as in PMID 25242859; conditions: cited from earlier work
[2] = test system: colorectal carcinoma tissue slices; assay: Autoradiography of human colorectal carcinoma versus healthy colon tissue slices; type: binding; conditions: in 5 of 7 regions, two CRC patients, P < 0.05
Description: Colorectal carcinoma tissue and adjacent healthy colon tissue were obtained directly after tumorectomy from two patients after full informed consent and quick-frozen in 2-methylbutane (−40°C). Tissue was sliced into 16 μm slices using a microcryotome (Thermo Scientific Microm HM 560) and stored at −80°C until usage. Depending on the sample size, 3 to 4 different regions were defined and analyzed by means of autoradiography and immunohistochemistry.
Tissue slices were thawed and reconstituted in assay buffer (50 mM Tris-HCl pH 7.4, 100 mM NaCl, 1 mM EDTA, 1% BSA, 1 unit adenosine deaminase/100 mL) for 30 min at RT. Radiosynthesis of [^18F]FE@SUPPY was performed as previously described and the product was physiologically formulated (EtOH/0.9% saline 10/90). Tissue slices were incubated with 50 kBq [^18F]FE@SUPPY (40–200 GBq/μmol) in 100 μL assay buffer for 1 h at RT. Slices were thoroughly washed with ice-cold wash buffer (50 mM Tris-HCl pH 7.4), dried, and exposed to a phosphor screen overnight. The readout of the phosphor storage screen was performed on a Cyclone Phosphor Imager (Perkin Elmer), and data analysis was performed using OptiQuant® Software as previously described. […] Differences among groups (colorectal cancer versus healthy colon) were analyzed using a two-tailed, unpaired Student's t-test with Welch's correction.

[3] = In vitro stability in mouse plasma; type: in vitro ADME; conditions: 120 min incubation at 37°C
Description: (§1) Stability of [^18F]FE@SUPPY was tested against mouse liver microsomes, mouse S9 fraction, and mouse plasma (BD Sciences). Amount of intact tracer (%) was determined after 5, 10, 20, 40, 60, and 120 min using an Agilent series 1100/1200 HPLC system connected to a radioactivity detector (Raytest, Ramona Star) (n = 2 in triplicate). The assay was conducted as previously described for respective rat and human enzymes.

[4] = In vitro stability against mouse S9 fraction; type: in vitro ADME; conditions: mouse liver homogenates (S9 fraction), 120 min
Description: as §1

[5] = In vitro stability against mouse liver microsomes; type: in vitro ADME; conditions: purified mouse liver microsomes, 120 min
Description: as §1

[6] = Ex vivo blood stability in BALB/c mice; conditions: 70 min after retroorbital injection
Description: Radiosynthesis was performed as described elsewhere and the product was processed as follows: ethanol was totally evaporated and the dry product was again physiologically formulated in 1.5–2 mL Tween-20/EtOH/0.9% saline 1/9/90 to obtain activity concentrations of approximately 1 GBq/mL. Healthy BALB/c mice were injected with 18 ± 2 MBq (molar activity = 70–200 GBq/μmol) retroorbitally and sacrificed after 5, 10, 20, 40, and 70 min (n = 3 for each time point). Blood samples were collected and immediately precipitated using acetonitrile/methanol (10 : 1) and centrifuged (12,000 rpm, 5 min, 4°C). The obtained supernatants were subjected to radio-HPLC as previously described.

[7] = Ex vivo biodistribution in BALB/c mice; conditions: 70 min after tracer application, n = 3
Description: Ex vivo biodistribution of [^18F]FE@SUPPY was assessed 70 min after tracer application in BALB/c mice. Radioactivity was determined using a gamma counter (2480 Wizard^2, PerkinElmer), organs were wet-weighted, and percentage of injected dose per gram of organ was calculated (%ID/g).

HT-29 xenografts = assay: µPET imaging of HT-29 / CHO-K1 xenograft-bearing CB17-SCID mice; type: in vivo; conditions: µPET 60 min, baseline
Description: After 10 to 14 days upon arrival, CB17-SCID mice were injected subcutaneously with 2 × 10^6 HT-29 cells into one flank and 2 × 10^6 CHO-K1 cells in the opposite flank (n = 9). Body weight and tumor development were monitored every second day by caliper measurement. The respective tumor volume was calculated according to the following equation: tumor volume (mm^3) = d^2 × D/2 (where d is the shortest diameter and D the longest diameter). Animals were subjected to μPET imaging 10 days after inoculation, when tumors reached a volume of at least 300 mm^3. Tumor volume never exceeded 1 cm^3.
Xenograft-bearing CB17-SCID mice were anesthetized using isoflurane (2.5%) mixed with oxygen (1.5 L/min) to avoid movement during the imaging. Blocking agents (2 mg/kg BW FE@SUPPY or MRS1523) or the respective vehicle control (Tween-20/EtOH/0.9% physiological saline 1/9/90) was administered retroorbitally 2 min prior to the radiotracer administration (n = 3 per group). Subsequently, the animals received another retroorbital injection of 17.42 ± 4.5 MBq [^18F]FE@SUPPY into the venous plexus of the opposite eye. With a minor delay after the application of the radiotracer (2-3 min), mice were placed into the field of view of the scanner (μPET/CT Inveon, Siemens Medical Solution, Knoxville, USA), and dynamic imaging was performed for 60 min to follow tracer distribution. Vital parameters (respiration, body temperature) were continuously monitored using a dedicated monitoring unit (bioVet; m2m imaging, Cleveland, OH, USA) to ensure the depth of anesthesia and wellbeing of the animals.

[8] = design: method as in PMID 25601336; conditions: rats, after 60 min; cited from earlier work
HT-29 cells [9] = test system: HT-29 cells; design: method as in PMID 17488804; conditions: hypoxic conditions, through A3AR stimulation; cited from earlier work

Sequence of hA2AAR (P29274 whole entry): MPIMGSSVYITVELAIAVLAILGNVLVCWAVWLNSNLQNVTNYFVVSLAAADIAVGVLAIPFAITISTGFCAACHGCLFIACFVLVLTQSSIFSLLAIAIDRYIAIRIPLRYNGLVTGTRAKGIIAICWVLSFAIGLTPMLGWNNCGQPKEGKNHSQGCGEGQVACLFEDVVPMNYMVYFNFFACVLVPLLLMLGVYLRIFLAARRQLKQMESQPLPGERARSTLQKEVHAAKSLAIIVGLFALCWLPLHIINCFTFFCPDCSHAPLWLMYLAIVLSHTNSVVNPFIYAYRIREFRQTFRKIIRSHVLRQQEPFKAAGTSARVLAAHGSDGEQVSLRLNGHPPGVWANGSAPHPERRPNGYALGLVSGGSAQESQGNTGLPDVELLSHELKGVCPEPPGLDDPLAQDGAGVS

Ki (hA1AR): 4.03 ± 1 µM
Ki (hA2AAR): 1.72 ± 0.4 µM
Ki (hA3AR; n = 3): 6.02 ± 0.4 nM
SMILES: CCSC(=O)c1c(CC)nc(-c2ccccc2)c(C(=O)OCCF)c1CC [FE@SUPPY]

SMILES: CNC(=O)[C@H]1O[C@@H](n2cnc3c(NCc4cccc(I)c4)ncnc32)[C@H](O)[C@@H]1O [IB-MECA]
effect on cell growth (HT-29 cells [1]): growth promoting effect
effect on cells (HCT-116 cells): causes cell apoptosis

hA1/hA3AR selectivity ratio (hA1AR; ratio of Ki values): 324
Ki (hA1AR): 5.46 ± 0.4 µM
Ki (hA2AAR): 37.1 ± 16 µM
Ki (hA3AR; n = 3–5 in triplicate): 2580 ± 1200 nM
SMILES: CCSC(=O)c1c(CC)nc(-c2ccccc2)c(C(=O)O)c1CC [DFE@SUPPY]

SMILES: Nc1ncnc2c1ncn2[C@@H]1O[C@H](CO)[C@@H](O)[C@H]1O [adenosine]
affinity for the A3AR (rat A3AR): ~ 1 µM

higher binding in colorectal carcinoma versus healthy colon tissue of the same patient [2]: ≥ 2.3 fold
intact tracer [3]: 92.6 ± 0.7%
intact tracer [4]: 66.9 ± 6.7%
intact tracer [5]: 31.4 ± 7.8%
intact tracer in blood (ex vivo) [6]: 2.2 ± 0.4%
accumulation in bile fluid [7]: 162.78 ± 37.51 % ID/g
accumulation in brain [7]: 0.23 ± 0.03 % ID/g
accumulation in heart [7]: 1.13 ± 0.04 % ID/g
accumulation in kidneys [7]: 2.67 ± 0.24 % ID/g
accumulation in liver [7]: 14.57 ± 0.20 % ID/g
accumulation in lung [7]: 1.50 ± 0.23 % ID/g
accumulation in urine [7]: 43.33 ± 9.23 % ID/g
circulating radioactivity in blood [7]: 1.6 ± 0.1 % ID/g
SUV CHO-K1 xenograft tumor (hA3AR negative control) (HT-29 xenografts; CB17-SCID mice): 0.25 ± 0.33
SUV HT-29 xenograft tumor (HT-29 xenografts; CB17-SCID mice): 0.23 ± 0.06
SUV bile fluid (HT-29 xenografts; CB17-SCID mice): 21.85 ± 10.63
SUV blood (HT-29 xenografts; CB17-SCID mice): 1.21 ± 0.11
SUV urine (HT-29 xenografts; CB17-SCID mice): 8.86 ± 3.44
SUV liver (HT-29 xenografts; xenograft-bearing CB17-SCID mice): 6.68 ± 0.80
SMILES: CCSC(=O)c1c(CC)nc(-c2ccccc2)c(C(=O)OCC[18F])c1CC [[^18F]FE@SUPPY, 5-(2-[18F]fluoroethyl) 2,4-diethyl-3-(ethylsulfanylcarbonyl)-6-phenylpyridine-5-carboxylate]
intact tracer in plasma [8]: 25.8 ± 5.3%

SMILES: Cn1c(=O)c2c(ncn2C)n(C)c1=O [caffeine]
effect on HIF-1 protein and VEGF expression (HT-29 cells [9]): leads to hypoxia-inducible factor-1 (HIF-1) protein accumulation and increased vascular endothelial growth factor (VEGF) expression
